Where a name gives a salt, the structure may show the parent alone. Read-outs that look alike come from different tables or passages of the source.
Experiments:
[1] = target: T1, c-erbB-2 (baculovirus expressed, recombinant intracellular domain) (Homo sapiens, UniProt P04626); test: Substrate phosphorylation assay, c-erbB-2; type: biochemical; settings: read-out: Substrate Phosphorylation erbB-2
T1 construct: baculovirus expressed, recombinant constructs of the intracellular domains of c-erbB-2 and c-erbB-4; made in house
Description: (§1) The substrate phosphorylation assays use baculovirus expressed, recombinant constructs of the intracellular domains of c-erbB-2 and c-erbB-4 that are constitutively active and EGFr isolated from solubilised A431 cell membranes. The method measures the ability of the isolated enzymes to catalyse the transfer of the γ-phosphate from ATP onto tyrosine residues in a biotinylated synthetic peptide (Biotin-[…]. […] The reaction is stopped by the addition of EDTA (final concentration 0.15 mM) and a sample is transferred to a streptavidin-coated 96-well plate. The plate is washed and level of phosphotyrosine on the peptide is determined using a Europium-labelled antiphosphotyrosine antibody and quantified with a time-resolved fluorescence technique.

[2] = target: T2, c-erbB-4 (baculovirus expressed, recombinant intracellular domain) (Homo sapiens, UniProt Q15303); test: Substrate phosphorylation assay, c-erbB-4; type: biochemical
T2 construct: baculovirus expressed, recombinant constructs of the intracellular domains of c-erbB-2 and c-erbB-4; made in house
Description: as §1

[3] = system: HB4a cell line transfected with ras; test: Cell proliferation assay, HB4a ras; type: cell-based, human; settings: 4 days at 37° C., methylene blue staining, general toxicity control, read-out: Cell Proliferation HB4a ras
[4] = system: Calu3-lung tumour cell line; test: Cell proliferation assay, Calu3; type: cell-based, human; settings: same methodology, 4 days
Description: (§2) The cell proliferation assay uses an immortalised human breast epithelial cell line (HB4a) which has been transformed by over-expression of c-erbB-2. Growth of these cells in low serum is dependent upon the c-erbB-2 tyrosine kinase activity. The specificity of the effect of the test compounds on tyrosine kinase dependent growth over general toxicity is assessed by comparison to an HB4a cell line which has been transfected with ras. Cells are plated at 3000/ well in 96-well plates in 0.1 ml medium and allowed to attach overnight. test compound is added in 0.1 ml medium, with a final concentration of 0.5% DMSO, and the plates incubated for 4 days at 37° C. The cells are then examined microscopically for evidence of morphological detransformation and cell mass is estimated by staining with methylene blue and measuring the absorbance at 620 nm. The results are shown in Table 1 below as the IC50 values in nM. Activity against a range of naturally occurring EGFr or c-erbB-2 over-expressing human tumour cell lines (BT474-breast, HN5-head and neck, N87-gastric and Calu3-lung) is assessed with selected compounds by the same methodology. The results are also shown in Table 1 below as the IC50 values in nM.

[5] = system: HN5-head and neck tumour cell line; test: Cell proliferation assay, HN5; type: cell-based, human; settings: same methodology, 4 days
Description: as §2

[6] = target: HB4a cell line transformed by over-expression of c-erbB-2 (Homo sapiens, UniProt P04626); test: Cell proliferation assay, HB4a erbB-2; type: cell-based; settings: 4 days at 37° C., methylene blue staining; read-out: Cell Proliferation HB4a erbB-2
Description: as §2, with “The specificity of the effect of the test compounds on tyrosine kinase dependent growth over general toxicity is assessed by comparison to an HB4a cell line which has been transfected with ras.” left out, “The results are shown in Table 1 below as the IC50 values in nM.” left out, “methodology.” for “methodology. The results are also shown in Table 1 below as the IC50 values in nM.”

[7] = target: T3, EGFr isolated from solubilised A431 cell membranes (Homo sapiens, UniProt P00533); test: Substrate phosphorylation assay, EGFr; type: biochemical; settings: 30 minutes, room temperature, ATP and peptide at Km concentrations
T3 construct: EGFr isolated from solubilised A431 cell membranes; endogenous in cells; host or cells: A431 cell membranes (solubilised)
Description: as §1

[8] = system: N87-gastric tumour cell line; test: Cell proliferation assay, N87; type: cell-based, human; settings: same methodology, 4 days
Description: as §2

[9] = system: BT474-breast tumour cell line; test: Cell proliferation assay, BT474; type: cell-based, human; settings: same methodology, 4 days
Description: as §2

HB4a cell line transformed by over-expression of c-erbB-2, sequence (P04626 whole entry, change not shown): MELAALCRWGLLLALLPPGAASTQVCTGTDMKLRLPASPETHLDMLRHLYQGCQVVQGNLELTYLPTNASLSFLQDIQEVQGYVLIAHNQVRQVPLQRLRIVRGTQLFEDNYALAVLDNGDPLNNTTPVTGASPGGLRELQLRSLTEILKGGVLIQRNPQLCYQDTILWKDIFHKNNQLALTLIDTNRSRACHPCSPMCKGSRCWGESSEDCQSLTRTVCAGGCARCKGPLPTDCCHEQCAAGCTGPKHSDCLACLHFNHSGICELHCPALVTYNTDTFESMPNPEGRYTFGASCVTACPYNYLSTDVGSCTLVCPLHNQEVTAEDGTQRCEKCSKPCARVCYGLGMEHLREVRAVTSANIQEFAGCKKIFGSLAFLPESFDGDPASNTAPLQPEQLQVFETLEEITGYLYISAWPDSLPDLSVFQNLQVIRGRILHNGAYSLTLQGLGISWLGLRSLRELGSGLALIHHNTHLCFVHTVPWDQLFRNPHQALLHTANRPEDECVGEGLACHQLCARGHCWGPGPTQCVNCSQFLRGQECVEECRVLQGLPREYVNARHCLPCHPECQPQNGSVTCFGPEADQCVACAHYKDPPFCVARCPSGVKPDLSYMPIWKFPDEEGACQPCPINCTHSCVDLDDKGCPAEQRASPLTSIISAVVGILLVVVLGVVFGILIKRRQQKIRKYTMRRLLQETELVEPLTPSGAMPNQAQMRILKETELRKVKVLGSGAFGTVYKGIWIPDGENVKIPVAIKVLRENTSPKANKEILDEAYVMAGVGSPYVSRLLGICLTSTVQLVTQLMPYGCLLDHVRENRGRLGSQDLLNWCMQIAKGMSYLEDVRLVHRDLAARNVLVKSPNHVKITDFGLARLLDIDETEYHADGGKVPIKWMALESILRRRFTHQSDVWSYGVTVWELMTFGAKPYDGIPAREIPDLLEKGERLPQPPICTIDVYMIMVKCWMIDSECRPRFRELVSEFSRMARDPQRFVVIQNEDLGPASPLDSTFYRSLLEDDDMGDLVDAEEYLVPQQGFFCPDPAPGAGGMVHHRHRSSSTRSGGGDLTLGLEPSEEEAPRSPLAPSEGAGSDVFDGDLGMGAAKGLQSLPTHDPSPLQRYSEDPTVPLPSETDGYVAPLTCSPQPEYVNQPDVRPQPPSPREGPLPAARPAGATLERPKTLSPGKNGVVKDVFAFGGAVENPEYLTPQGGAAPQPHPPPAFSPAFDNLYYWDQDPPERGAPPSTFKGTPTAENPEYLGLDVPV
T1 sequence (P04626 676-1255 limits assumed): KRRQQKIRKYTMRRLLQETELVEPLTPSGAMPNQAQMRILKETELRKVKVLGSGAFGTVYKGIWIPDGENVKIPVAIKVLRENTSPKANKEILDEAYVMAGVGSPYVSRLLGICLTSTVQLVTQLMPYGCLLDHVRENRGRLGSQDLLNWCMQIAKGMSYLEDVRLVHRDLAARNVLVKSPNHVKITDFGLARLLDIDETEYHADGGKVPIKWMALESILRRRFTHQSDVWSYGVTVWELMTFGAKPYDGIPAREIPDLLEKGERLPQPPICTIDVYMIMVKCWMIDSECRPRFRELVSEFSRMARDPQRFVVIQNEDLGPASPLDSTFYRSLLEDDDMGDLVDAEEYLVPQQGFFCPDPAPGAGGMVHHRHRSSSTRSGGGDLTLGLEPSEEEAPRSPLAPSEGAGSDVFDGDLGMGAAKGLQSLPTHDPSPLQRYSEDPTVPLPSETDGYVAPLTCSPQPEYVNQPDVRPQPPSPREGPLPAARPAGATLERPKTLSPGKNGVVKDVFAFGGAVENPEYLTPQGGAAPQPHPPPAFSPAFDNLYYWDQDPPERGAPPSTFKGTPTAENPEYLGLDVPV
T2 sequence (Q15303 676-1308 limits assumed): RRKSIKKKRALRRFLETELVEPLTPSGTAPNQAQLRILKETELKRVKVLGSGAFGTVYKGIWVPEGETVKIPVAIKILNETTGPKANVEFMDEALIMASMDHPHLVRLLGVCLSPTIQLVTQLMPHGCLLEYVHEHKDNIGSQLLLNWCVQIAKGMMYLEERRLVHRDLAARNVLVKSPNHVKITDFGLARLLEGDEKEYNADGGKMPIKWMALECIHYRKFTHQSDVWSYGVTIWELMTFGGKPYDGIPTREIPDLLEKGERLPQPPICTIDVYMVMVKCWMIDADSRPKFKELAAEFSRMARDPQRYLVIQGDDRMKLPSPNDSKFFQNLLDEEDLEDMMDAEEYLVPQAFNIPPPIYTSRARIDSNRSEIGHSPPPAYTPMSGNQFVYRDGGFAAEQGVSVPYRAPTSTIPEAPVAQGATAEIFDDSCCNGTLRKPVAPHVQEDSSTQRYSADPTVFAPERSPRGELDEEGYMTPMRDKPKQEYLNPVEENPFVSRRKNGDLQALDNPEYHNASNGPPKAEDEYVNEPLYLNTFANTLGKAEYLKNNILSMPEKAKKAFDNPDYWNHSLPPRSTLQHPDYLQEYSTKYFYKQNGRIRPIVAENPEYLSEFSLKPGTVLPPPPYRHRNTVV
T3 sequence (P00533 25-1210): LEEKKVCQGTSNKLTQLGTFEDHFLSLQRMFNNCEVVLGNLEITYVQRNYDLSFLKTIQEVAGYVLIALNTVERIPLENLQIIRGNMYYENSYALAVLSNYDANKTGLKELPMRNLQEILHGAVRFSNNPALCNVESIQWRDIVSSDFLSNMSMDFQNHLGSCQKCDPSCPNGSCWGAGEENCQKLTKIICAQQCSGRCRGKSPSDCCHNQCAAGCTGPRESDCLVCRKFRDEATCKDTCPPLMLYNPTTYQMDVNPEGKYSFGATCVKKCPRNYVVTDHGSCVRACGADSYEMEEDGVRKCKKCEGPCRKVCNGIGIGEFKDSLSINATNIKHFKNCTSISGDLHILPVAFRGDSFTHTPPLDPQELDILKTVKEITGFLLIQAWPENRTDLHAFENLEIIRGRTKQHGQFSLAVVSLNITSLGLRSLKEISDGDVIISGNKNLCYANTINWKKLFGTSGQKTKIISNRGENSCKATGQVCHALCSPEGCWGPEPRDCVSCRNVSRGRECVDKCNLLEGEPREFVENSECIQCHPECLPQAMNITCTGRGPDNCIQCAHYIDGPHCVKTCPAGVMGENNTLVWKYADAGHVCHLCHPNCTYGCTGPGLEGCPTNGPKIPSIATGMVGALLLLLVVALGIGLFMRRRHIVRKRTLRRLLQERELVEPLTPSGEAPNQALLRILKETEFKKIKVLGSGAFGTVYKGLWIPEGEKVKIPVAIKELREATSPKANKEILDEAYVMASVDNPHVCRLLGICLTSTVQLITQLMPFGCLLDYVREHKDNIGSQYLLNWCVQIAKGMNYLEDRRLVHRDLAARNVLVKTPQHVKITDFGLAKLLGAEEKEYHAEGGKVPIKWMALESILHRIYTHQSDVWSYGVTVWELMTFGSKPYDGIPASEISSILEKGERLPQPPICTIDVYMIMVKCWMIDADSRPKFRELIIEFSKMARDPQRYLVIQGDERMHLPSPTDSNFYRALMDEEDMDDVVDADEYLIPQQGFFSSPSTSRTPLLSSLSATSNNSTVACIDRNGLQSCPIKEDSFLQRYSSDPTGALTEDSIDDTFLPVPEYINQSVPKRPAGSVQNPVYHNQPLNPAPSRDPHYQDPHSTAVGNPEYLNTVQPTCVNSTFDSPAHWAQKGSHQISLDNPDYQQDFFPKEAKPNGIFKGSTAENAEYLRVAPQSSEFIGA

SMILES | IC50 [1] | IC50 [2] | IC50 ([4]; Homo sapiens, Calu-3, 96 h) | IC50 ([5]; Homo sapiens, 96 h) | GI50 [6] | IC50 [7] | IC50 ([8]; Homo sapiens, 96 h) | IC50 ([9]; Homo sapiens, BT-474, 96 h) | IC50 ([3]; Homo sapiens, HB4a, 96 h) | IC50 ([1]; 30 minutes, room temperature, ATP and peptide at Km concentrations) | IC50 [8] | IC50 [3] | IC50 [4] | IC50 [5] | IC50 [9]
NC(=O)[C@@H]1CCCN1Cc1ccc(-c2ccc3ncnc(Nc4ccc5c(cnn5Cc5ccccc5)c4)c3c2)o1 [Example 18, (S)-1-(5-(4-(1-Benzyl-1H-indazol-5-ylamino)-quinazolin-6-yl)-furan-2-ylmethyl)-pyrrolidine-2-carboxylic acid amide dihydrochloride] | 45 nM | 34 nM | 0.36 µM | 840 nM | 9 nM |  | 180 nM | 2 nM | > 50 µM |  |  |  |  |  | 
Cc1nnc(-c2ccc3ncnc(Nc4ccc5c(cnn5Cc5cccc(F)c5)c4)c3c2)o1 [Example 22, (1-(3-Fluorobenzyl)-1H-indazol-5-yl)-(6-(5-methyl-1,3,4-oxadiazol-2-yl)-quinazolin-4-yl)-amine hydrochloride] |  |  | 2.2 µM | 910 nM | 430 nM | 8 nM | 600 nM | 97 nM | 27 µM |  |  |  |  |  | 
Cc1nnc(-c2ccc3ncnc(Nc4ccc(OCc5ccccc5F)cc4)c3c2)o1 [Example 28, (4-(2-Fluoro-benzyloxy)-phenyl)-(6-(5-methyl-1,3,4-oxadiazol-2-yl)-quinazolin-4-yl)-amine hydrochloride] | 7 nM |  |  |  | 5300 nM | 50 nM | 8200 nM |  | > 50 µM |  |  |  |  |  | 
Cc1nnc(-c2ccc3ncnc(Nc4ccc(OCc5cccc(F)c5)cc4)c3c2)o1 [Example 29, hydrochloride] |  |  |  |  | 2500 nM | 23 nM |  |  |  | 3 nM | 2400 nM | > 50 µM | 23 µM | 4400 nM | 770 nM
Cc1nnc(-c2ccc3ncnc(Nc4ccc(S(=O)(=O)c5ccccc5)cc4)c3c2)o1 [Example 30, (4-Benzenesulphonyl-phenyl)-(6-(5-methyl-1,3,4-oxadiazol-2-yl)-quinazolin-4-yl)-amine hydrochloride] | 6 nM |  | 18 µM |  | 5400 nM | 38 nM |  |  | 50 µM |  |  |  |  |  | 
Cc1nnc(-c2ccc3ncnc(Nc4ccc5c(cnn5Cc5ccccc5)c4)c3c2)o1 [Example 41, (1-Benzyl-1H-indazol-5-yl)-(6-(5-methyl-1,3,4-oxadiazol-2-yl)-quinazolin-4-yl)-amine hydrochloride] | 10 nM | 1000 nM | 5.3 µM | 970 nM | 610 nM | 2 nM | 1400 nM | 260 nM | 35 µM |  |  |  |  |  | 

Continued by falling GI50 [6], values first:

IC50 [1] | IC50 [2] | IC50 ([4]; Homo sapiens, Calu-3, 96 h) | IC50 ([5]; Homo sapiens, 96 h) | GI50 [6] | IC50 [7] | IC50 ([8]; Homo sapiens, 96 h) | IC50 ([9]; Homo sapiens, BT-474, 96 h) | SMILES | IC50 ([3]; Homo sapiens, HB4a, 96 h) | IC50 ([1]; 30 minutes, room temperature, ATP and peptide at Km concentrations) | IC50 [8] | IC50 [3] | IC50 [4] | IC50 [5] | IC50 [9]
110 nM | 1000 nM | 5.8 µM | 5200 nM | 1600 nM | 680 nM | 1800 nM | 1900 nM | Cn1cncc1-c1ccc2ncnc(Nc3ccc(OCc4ccccc4)cc3)c2c1 [Example 6, (4-Benzyloxy-phenyl)-(6-(3-methyl-3H-imidazol-4-yl)-quinazolin-4-yl)-amine] | 16 µM |  |  |  |  |  | 
52 nM | 780 nM | 2.2 µM | 2100 nM | 1500 nM |  |  |  | CN1CCN(Cc2ccc(-c3ccc4ncnc(Nc5ccc(OCc6ccccc6)cc5)c4c3)o2)CC1 [Example 10] | 7.1 µM |  |  |  |  |  | 
36 nM | 1500 nM | 4.7 µM | 5500 nM | 1300 nM |  |  |  | C1=C(c2ccc3ncnc(Nc4ccc(OCc5ccccc5)cc4)c3c2)OCC1 [Example 7, (4-Benzyloxy-phenyl)-(6-(2,3-dihydrofuran-5-yl)-quinazolin-4-yl)-amine] | 12 µM |  |  |  |  |  | 
21 nM | 500 nM | 4.6 µM | 26000 nM | 1000 nM |  |  |  | c1ccc(COc2ccc(Nc3ncnc4ccc(-c5cccs5)cc34)cc2)cc1 [Example 2, (4-Benzyloxy-phenyl)-(6-(thiophen-2-yl)-quinazolin-4-yl)-amine] | 8.3 µM |  |  |  |  |  | 
36 nM | 660 nM | 0.93 µM | 940 nM | 580 nM | 160 nM | 480 nM | 180 nM | NC(=O)[C@@H]1CCCN1Cc1ccc(-c2ccc3ncnc(Nc4ccc(OCc5ccccc5)cc4)c3c2)o1 [Example 11, (S)-1-(5-(4-(4-Benzyloxy-phenylamino)-quinazolin-6-yl)-furan-2-ylmethyl)-pyrrolidine-2-carboxylicacid amide] | 14 µM |  |  |  |  |  | 
20 nM | 320 nM | 0.78 µM | 1400 nM | 400 nM |  |  |  | c1ccc(COc2ccc(Nc3ncnc4ccc(-c5ccc(C6OCCO6)o5)cc34)cc2)cc1 [Example 5] | 19 µM |  |  |  |  |  | 
1 nM | 240 nM | 0.92 µM | 670 nM | 50 nM | 8 nM | 380 nM | 110 nM | CS(=O)(=O)CCNCc1ccc(-c2ccc3ncnc(Nc4ccc5c(cnn5Cc5ccccc5)c4)c3c2)o1 [Example 19, (1-Benzyl-1H-indazol-5-yl)-(6-(5-((2-methanesulphonyl-ethylamino)-methyl)-furan-2-yl)-quinazolin-4-yl)-amine dihydrochloride] | 25 µM |  |  |  |  |  | 
